Earlier results as cited in patent US20220175695A1, “FORTIFICANT COMPOSITION” (Conopco, Inc., d/b/a UNILEVER, priority 2019, published 2022).

Details: without the composition

time Vitamin A is stable in the presence of water: < 4 h
Substance: Vitamin A
